Results: ChEMBL document CHEMBL1201862, “PubChem BioAssay data set” (2004)
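Exposure lasted 48 hours, with cells grown in 96-well plates and compounds tested at five concentrations. GI50 is the concentration that inhibits growth by half.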 Active and inactive are the calls of the source. Cut-off read from the data, not from the text of the source: active = GI50 up to about 1.1 µM and inactive = higher. Positions of bridges follow the written chain, without caps; N, C: chain ends. Residues, ends and D or L forms follow the SMILES beside them.

Key:
Assay in all cases: DTP human tumour cell line panel, 48 h
[1] = system: SK-MEL-28
[2] = system: IGROV-1
[3] = system: U-251
[4] = system: SW-620
[5] = system: MCF7
[6] = system: HL-60
[7] = system: CCRF-CEM
[8] = system: M14
[9] = system: SR
[10] = system: TK-10
[11] = system: ACHN
[12] = system: SF-268
[13] = system: Hs-578T
[14] = system: OVCAR-3
[15] = system: HOP-92
[16] = system: UACC-62
[17] = system: SF-539
[18] = system: OVCAR-5
[19] = system: Malme-3M
[20] = system: SK-OV-3

SMILES	GI50 [1]	GI50 [2]	GI50 [3]	GI50 [4]	GI50 [5]	GI50 [6]	GI50 [7]	GI50 [8]	GI50 [9]	GI50 [10]	GI50 [11]	GI50 [12]	GI50 [13]	GI50 [14]	GI50 [15]	GI50 [16]	GI50 [17]	GI50 [18]	GI50 [19]	GI50 [20]
CCC(C)C1NC(=O)C(CC(C)C)NC(=O)C(C(C)C)NC(=O)C2CSSCC(NC1=O)C(=O)N2 (stereo not given) (cyclo(CCVLI); disulfide 1-2; configuration not given here)	0.122 µM (active)	0.165 µM (active)	0.0385 µM (active)	0.16 µM (active)	0.0318 µM (active)	0.155 µM (active)	0.0228 µM (active)	0.277 µM (active)	0.178 µM (active)	0.687 µM (active)	0.458 µM (active)	0.0387 µM (active)	0.043 µM (active)	0.187 µM (active)	0.121 µM (active)	0.0904 µM (active)	0.144 µM (active)	0.16 µM (active)	–	–
CN(C)Cc1cc(C(=O)/C=C/c2ccc(Cl)c(Cl)c2)cc(CN(C)C)c1O	2.57 µM (inactive)	3.37 µM (inactive)	3.08 µM (inactive)	1.45 µM (inactive)	2.48 µM (inactive)	0.826 µM (active)	1.89 µM (inactive)	2.02 µM (inactive)	–	–	1.67 µM (inactive)	3.05 µM (inactive)	3.04 µM (inactive)	1.59 µM (inactive)	0.598 µM (active)	–	2.77 µM (inactive)	8.83 µM (inactive)	2.88 µM (inactive)	–
COC(=O)[C@H](C)NC(=O)[C@H](NS(=O)(=O)c1nc2ccccc2s1)c1ccccc1	17 µM (inactive)	49.3 µM (inactive)	20.5 µM (inactive)	37.3 µM (inactive)	34 µM (inactive)	39.3 µM (inactive)	34.4 µM (inactive)	10.4 µM (inactive)	15.6 µM (inactive)	58.1 µM (inactive)	33.9 µM (inactive)	15.1 µM (inactive)	8.2 µM (inactive)	–	12.6 µM (inactive)	14.9 µM (inactive)	15.6 µM (inactive)	–	–	33.2 µM (inactive)
Cc1ccc(-c2c(C#N)c(-c3ccc(N(C)C)cc3)c(C#N)c(=O)n2NS(=O)(=O)c2ccccc2)cc1	45.9 µM (inactive)	63.2 µM (inactive)	47.9 µM (inactive)	39.2 µM (inactive)	26.1 µM (inactive)	44.8 µM (inactive)	29.5 µM (inactive)	25 µM (inactive)	–	92.3 µM (inactive)	42.7 µM (inactive)	79.3 µM (inactive)	33.7 µM (inactive)	–	> 100 µM (inactive)	30.8 µM (inactive)	21.9 µM (inactive)	> 100 µM (inactive)	87.9 µM (inactive)	62.1 µM (inactive)
COC(=O)C1(Cc2ccccc2)Cc2cc3c(cc2C1O)CCC3 (stereo not given)	16.1 µM (inactive)	15.8 µM (inactive)	–	13.2 µM (inactive)	–	24.5 µM (inactive)	16.1 µM (inactive)	–	26.7 µM (inactive)	25.9 µM (inactive)	17.1 µM (inactive)	30.3 µM (inactive)	13.8 µM (inactive)	16.4 µM (inactive)	16 µM (inactive)	16.9 µM (inactive)	18.2 µM (inactive)	13.6 µM (inactive)	14 µM (inactive)	17 µM (inactive)
C=CCOCn1cnc2c(N)ncnc21	> 100 µM (inactive)	> 100 µM (inactive)	> 100 µM (inactive)	> 100 µM (inactive)	> 100 µM (inactive)	> 100 µM (inactive)	> 100 µM (inactive)	> 100 µM (inactive)	> 100 µM (inactive)	> 100 µM (inactive)	> 100 µM (inactive)	> 100 µM (inactive)	> 100 µM (inactive)	–	–	> 100 µM (inactive)	> 100 µM (inactive)	> 100 µM (inactive)	> 100 µM (inactive)	> 100 µM (inactive)
CC(=O)/C=C/C=C(\C)CC/C=C(\C)CC(C)C	33.9 µM (inactive)	28.9 µM (inactive)	25.4 µM (inactive)	17.1 µM (inactive)	22.8 µM (inactive)	13 µM (inactive)	13.5 µM (inactive)	52.2 µM (inactive)	16.1 µM (inactive)	> 100 µM (inactive)	29.9 µM (inactive)	39.7 µM (inactive)	53.5 µM (inactive)	26.4 µM (inactive)	0.558 µM (active)	18.1 µM (inactive)	21.7 µM (inactive)	61.2 µM (inactive)	–	55.7 µM (inactive)
C/C(=N\N=C(/S)N1CC2CCC(CC2)C1)c1cccc[n+]1[O-]	5.2 µM (inactive)	17.9 µM (inactive)	6.28 µM (inactive)	4.35 µM (inactive)	5.7 µM (inactive)	0.23 µM (active)	0.238 µM (active)	6.15 µM (inactive)	–	20.4 µM (inactive)	5 µM (inactive)	11.8 µM (inactive)	18.4 µM (inactive)	0.044 µM (active)	13.2 µM (inactive)	7.31 µM (inactive)	5.85 µM (inactive)	6.11 µM (inactive)	12.5 µM (inactive)	35.8 µM (inactive)
Cc1ccc(/C(O)=C/c2nc3ccccc3oc2=O)cc1	–	> 100 µM (inactive)	> 100 µM (inactive)	–	47.6 µM (inactive)	–	12.8 µM (inactive)	> 100 µM (inactive)	26.9 µM (inactive)	> 100 µM (inactive)	58.1 µM (inactive)	> 100 µM (inactive)	46.9 µM (inactive)	51.2 µM (inactive)	–	37.7 µM (inactive)	> 100 µM (inactive)	> 100 µM (inactive)	34.1 µM (inactive)	–
COc1ccc(-c2nc3ncccn3c2-c2ccc([S+](C)[O-])cc2)cc1 (stereo not given)	> 100 µM (inactive)	> 100 µM (inactive)	> 100 µM (inactive)	> 100 µM (inactive)	28.3 µM (inactive)	> 100 µM (inactive)	> 100 µM (inactive)	> 100 µM (inactive)	50.7 µM (inactive)	–	> 100 µM (inactive)	89.5 µM (inactive)	> 100 µM (inactive)	> 100 µM (inactive)	61.2 µM (inactive)	54.7 µM (inactive)	> 100 µM (inactive)	> 100 µM (inactive)	–	45.3 µM (inactive)
O=C1/C(=C/c2cccs2)NC(=S)N1CN1CCCCC1	> 100 µM (inactive)	67.1 µM (inactive)	85.9 µM (inactive)	30.3 µM (inactive)	28.2 µM (inactive)	–	60.5 µM (inactive)	61.7 µM (inactive)	88.9 µM (inactive)	> 100 µM (inactive)	42.6 µM (inactive)	> 100 µM (inactive)	> 100 µM (inactive)	> 100 µM (inactive)	77.1 µM (inactive)	55.8 µM (inactive)	–	> 100 µM (inactive)	> 100 µM (inactive)	> 100 µM (inactive)
O=C1C(C(c2ccc([N+](=O)[O-])cc2)N2CCOCC2)=C(O)C(c2ccccc2)N1c1ccccc1 (stereo not given)	> 10 µM (inactive)	> 10 µM (inactive)	> 10 µM (inactive)	> 10 µM (inactive)	> 10 µM (inactive)	> 10 µM (inactive)	> 10 µM (inactive)	> 10 µM (inactive)	> 10 µM (inactive)	> 10 µM (inactive)	> 10 µM (inactive)	> 10 µM (inactive)	> 10 µM (inactive)	> 10 µM (inactive)	–	> 10 µM (inactive)	> 10 µM (inactive)	> 10 µM (inactive)	> 10 µM (inactive)	> 10 µM (inactive)
c1ccc(Cc2cc(-c3ccccc3)[nH]n2)cc1	11.6 µM (inactive)	18.1 µM (inactive)	13.2 µM (inactive)	14.6 µM (inactive)	19.8 µM (inactive)	16.9 µM (inactive)	10.9 µM (inactive)	28.5 µM (inactive)	18.4 µM (inactive)	17.4 µM (inactive)	15.8 µM (inactive)	22.3 µM (inactive)	15.3 µM (inactive)	0.0465 µM (active)	–	14.4 µM (inactive)	–	20.6 µM (inactive)	–	32.4 µM (inactive)
C/C(=N\NC(=S)N1CCN(c2ccccn2)CC1)c1ccccn1	0.208 µM (active)	0.00151 µM (active)	0.00356 µM (active)	0.017 µM (active)	0.00782 µM (active)	–	0.00337 µM (active)	0.0431 µM (active)	0.0522 µM (active)	0.871 µM (active)	< 0.0239 µM (active)	0.193 µM (active)	0.129 µM (active)	0.00327 µM (active)	0.0776 µM (active)	0.00646 µM (active)	0.397 µM (active)	0.0474 µM (active)	0.224 µM (active)	0.0593 µM (active)
Cc1ccc(/N=C2\C(=N/c3ccc(C)cc3)N(c3ccc(C)cc3)C(=S)N2C(=O)c2ccccc2)cc1	> 100 µM (inactive)	> 100 µM (inactive)	> 100 µM (inactive)	> 100 µM (inactive)	> 100 µM (inactive)	–	–	> 100 µM (inactive)	> 100 µM (inactive)	> 100 µM (inactive)	> 100 µM (inactive)	> 100 µM (inactive)	> 100 µM (inactive)	> 100 µM (inactive)	> 100 µM (inactive)	> 100 µM (inactive)	> 100 µM (inactive)	> 100 µM (inactive)	> 100 µM (inactive)	> 100 µM (inactive)
CC(N/N=C(\S)N1CCCC1)c1cccnn1 (stereo not given)	0.453 µM (active)	0.43 µM (active)	0.358 µM (active)	0.579 µM (active)	0.308 µM (active)	0.361 µM (active)	0.274 µM (active)	0.378 µM (active)	0.378 µM (active)	0.54 µM (active)	0.391 µM (active)	0.259 µM (active)	9.53 µM (inactive)	0.29 µM (active)	–	0.414 µM (active)	0.215 µM (active)	0.318 µM (active)	0.849 µM (active)	0.337 µM (active)
